Reference: patent US20240270809A1, “ORAL GLP RECEPTOR AGONISTS” (priority 2020, published 2024)
Positions of bridges follow the written chain, without caps; N, C: chain ends. Non-standard residues stand in square brackets, D forms with d. Residues, ends and D or L forms follow the SMILES beside them. *: point of attachment. Malonyl(2,2-Me2,histaminyl) = CC(C)(C(=O)NCCc1cnc[nH]1)C(=O)*; Ala(1H-tetrazol-5-yl) = N[C@@H](Cc1nnn[nH]1)C(=O)O; αMePhe(2-F) = C[C@](N)(Cc1ccccc1F)C(=O)O; αMeL = CC(C)C[C@](C)(N)C(=O)O; Nle = CCCC[C@H](N)C(=O)O; Aib = CC(C)(N)C(=O)O

Experiments:
[1] = molecular target: T1, human GLP2 receptor (Homo sapiens, UniProt O95838); experiment: cAMP accumulation assay, functional agonism of human GLP2 receptor; format: cell-based; conditions: HEK cells infected with human GLP2 receptor BacMam virus, HTRF cAMP; for Emax: HEK293, read-out: Human GLP-2R agonist cAMP Emax; for EC50: read-out: Human GLP-2R agonist cAMP pEC50 (converted)
T1 construct: expressed in transfected cells; host or cells: HEK cells, BacMam virus transduction
T1 sequence (O95838 1-553): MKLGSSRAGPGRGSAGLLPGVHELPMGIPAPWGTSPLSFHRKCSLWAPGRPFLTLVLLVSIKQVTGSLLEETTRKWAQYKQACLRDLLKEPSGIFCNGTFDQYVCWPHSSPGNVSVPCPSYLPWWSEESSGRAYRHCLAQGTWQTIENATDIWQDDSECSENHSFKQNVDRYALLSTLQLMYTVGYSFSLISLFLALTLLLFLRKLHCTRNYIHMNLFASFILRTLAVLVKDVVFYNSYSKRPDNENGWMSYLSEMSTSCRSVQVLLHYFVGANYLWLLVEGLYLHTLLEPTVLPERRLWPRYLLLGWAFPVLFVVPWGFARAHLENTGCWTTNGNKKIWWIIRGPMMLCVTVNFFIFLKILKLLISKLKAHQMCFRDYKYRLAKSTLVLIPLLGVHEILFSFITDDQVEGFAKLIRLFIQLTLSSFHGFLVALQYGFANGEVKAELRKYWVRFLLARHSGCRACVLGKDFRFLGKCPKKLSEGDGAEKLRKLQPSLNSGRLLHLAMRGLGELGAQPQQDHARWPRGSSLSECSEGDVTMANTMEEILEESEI
Protocol: (§1) CAMP production upon agonist stimulation of human GLP2 or GLP1 receptor was assessed utilizing HiRange cAMP kit (Cisbio). In brief, HEK cells were infected with either human GLP2 or GLP1 receptor BacMam virus for 24 hours and frozen for later use in the assay. […] Cells were prepared in the assay buffer (HBSS (Lonza) supplemented with 0.5 mM IBMX (Tocris)). After 45 min incubation at 37° C., the reaction was stopped by addition of the HTRF detection reagents in the lysis buffer provided in the kit.

[2] = molecular target: T2, human GLP1 receptor (Homo sapiens, UniProt P43220); experiment: cAMP accumulation assay, functional agonism of human GLP1 receptor; format: cell-based; conditions: HEK cells infected with human GLP1 receptor BacMam virus, HTRF cAMP; for Emax: HEK293, read-out: Human GLP-1R agonist cAMP Emax; for EC50: read-out: Human GLP-1R agonist cAMP pEC50 (converted)
T2 construct: expressed in transfected cells; host or cells: HEK cells, BacMam virus transduction
T2 sequence (P43220 24-463): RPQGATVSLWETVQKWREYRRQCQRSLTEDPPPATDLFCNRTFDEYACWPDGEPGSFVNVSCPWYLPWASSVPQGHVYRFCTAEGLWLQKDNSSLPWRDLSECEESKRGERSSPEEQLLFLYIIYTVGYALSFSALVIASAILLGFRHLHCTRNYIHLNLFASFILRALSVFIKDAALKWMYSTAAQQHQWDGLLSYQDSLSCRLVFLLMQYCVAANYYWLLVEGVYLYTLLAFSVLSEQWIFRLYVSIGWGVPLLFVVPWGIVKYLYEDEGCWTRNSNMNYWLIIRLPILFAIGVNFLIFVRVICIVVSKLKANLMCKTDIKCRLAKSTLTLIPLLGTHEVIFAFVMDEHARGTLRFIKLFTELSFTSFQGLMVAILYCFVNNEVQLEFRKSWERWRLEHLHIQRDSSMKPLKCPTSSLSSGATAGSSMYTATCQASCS
Protocol: as §1

Row | Emax [1] | EC50 [1] | Emax [2] | EC50 [2] | Structure (SMILES)
1 | 103% | 0.251 nM | 98.1% | 0.631 nM | CCCC[C@H](NC(=O)[C@H](CCC(=O)O)NC(=O)[C@H](CC(=O)O)NC(=O)[C@H](CO)NC(=O)[C@H](Cc1ccccc1)NC(=O)[C@H](CO)NC(=O)CNC(=O)[C@H](Cc1nn[nH]n1)NC(=O)C(C)(C)C(=O)NCCc1c[nH]cn1)C(=O)N[C@H](Cc1ccccc1)C(=O)N[C@H](C(=O)N[C@H](C(=O)N[C@@H](CC(C)C)C(=O)N[C@@H](CC(=O)O)C(=O)N[C@@H](CC(C)C)C(=O)N[C@@H](CCCCN)C(=O)N[C@@H](C)C(=O)N[C@@H](C)C(=O)N[C@@H](CCCCN)C(=O)N[C@@H](CC(=O)O)C(=O)N[C@@H](Cc1ccccc1)C(=O)N[C@H](C(=O)N[C@@H](CC(N)=O)C(=O)N[C@@H](Cc1c[nH]c2ccccc12)C(=O)N[C@@H](CC(C)C)C(=O)N[C@H](C(=O)N[C@@H](CCC(N)=O)C(=O)N[C@H](C(=O)N[C@H]1CCC(=O)NCCCC[C@@H](C(N)=O)NC(=O)[C@H]([C@@H](C)O)NC(=O)[C@H]([C@@H](C)CC)NC1=O)[C@@H](C)O)[C@@H](C)CC)[C@@H](C)CC)[C@@H](C)CC)[C@@H](C)O [Example 83] ({Malonyl(2,2-Me2,histaminyl)}-[Ala(1H-tetrazol-5-yl)]GSFSDE[Nle][dF]TILDLKAAKDFINWLIQTEITK-NH2; lactam 28-31 (inferred); C-terminus assumed)
2 | 101% | 0.0316 nM | 88.8% | 0.631 nM | CCCC[C@@H]1NC(=O)[C@H](CCC(=O)O)NC(=O)[C@@H](NC(=O)[C@H](CO)NC(=O)[C@](C)(Cc2ccccc2F)NC(=O)[C@H](CO)NC(=O)[C@@H](C)NC(=O)[C@H](CCC(N)=O)NC(=O)C(C)(C)C(=O)NCCc2c[nH]cn2)CCCCNC(=O)C[C@@H](C(=O)N[C@H](C(=O)N[C@@H](CC(C)C)C(=O)N[C@@H](CC(=O)O)C(=O)N[C@H]2CCC(=O)NCCCC[C@@H](C(=O)N[C@@H](CC(=O)O)C(=O)N[C@@H](Cc3ccccc3)C(=O)N[C@H](C(=O)N[C@H]3CCCCNC(=O)C[C@@H](C(=O)N[C@H]4CCC(=O)NCCCC[C@@H](C(N)=O)NC(=O)[C@H]([C@@H](C)O)NC(=O)[C@H]([C@@H](C)CC)NC(=O)[C@H](CCCCN)NC4=O)NC(=O)[C@H]([C@@H](C)CC)NC(=O)[C@H](CC(C)C)NC(=O)[C@H](Cc4c[nH]c5ccccc45)NC3=O)[C@@H](C)CC)NC(=O)[C@H](C)NC(=O)[C@H](C)NC(=O)[C@H](CCCCN)NC2=O)[C@@H](C)CC)NC(=O)[C@@H](Cc2ccccc2)NC1=O [Example 54] ({Malonyl(2,2-Me2,histaminyl)}-Q[dA]S[αMePhe(2-F)]SKE[Nle][dF]DILDEKAAKDFIKWLIDEKITK-NH2; lactam 6-10, 14-18, 22-26, 27-31 (inferred); C-terminus assumed)

More lines, now with the values behind:

Row | Structure (SMILES) | Emax [1] | EC50 [1] | Emax [2] | EC50 [2]
3 | CCCC[C@H](NC(=O)[C@H](CCC(=O)O)NC(=O)[C@@H]1CCCCNC(=O)CC[C@H](NC(=O)[C@H](CC(=O)O)NC(=O)C(C)(C)NC(=O)[C@@H](N)Cc2c[nH]cn2)C(=O)N[C@@H](CO)C(=O)N[C@@H](Cc2ccccc2)C(=O)N[C@@H](CO)C(=O)N1)C(=O)N[C@H](Cc1ccccc1)C(=O)N[C@H](C(=O)N[C@H](C(=O)N[C@@H](CC(C)C)C(=O)N[C@@H](CC(=O)O)C(=O)N[C@@H](CC(C)C)C(=O)N[C@@H](CCCCN)C(=O)N[C@@H](C)C(=O)N[C@@H](C)C(=O)N[C@@H](CCCCN)C(=O)N[C@@H](CC(=O)O)C(=O)N[C@@H](Cc1ccccc1)C(=O)N[C@H](C(=O)N[C@@H](CC(N)=O)C(=O)N[C@@H](Cc1c[nH]c2ccccc12)C(=O)N[C@@H](CC(C)C)C(=O)N[C@H](C(=O)N[C@@H](CCC(N)=O)C(=O)N[C@H](C(=O)N[C@H]1CCC(=O)NCCCC[C@@H](C(N)=O)NC(=O)[C@H]([C@@H](C)O)NC(=O)[C@H]([C@@H](C)CC)NC1=O)[C@@H](C)O)[C@@H](C)CC)[C@@H](C)CC)[C@@H](C)CC)[C@@H](C)O [Example 104] (H-H[Aib]DESFSKE[Nle][dF]TILDLKAAKDFINWLIQTEITK-NH2; lactam 4-8, 30-33 (inferred); C-terminus assumed) | 102% | 0.501 nM | 88.3% | 3.98 nM
4 | CCCC[C@@H]1NC(=O)[C@H](CCC(=O)O)NC(=O)[C@@H](NC(=O)[C@H](CO)NC(=O)[C@H](Cc2ccccc2)NC(=O)[C@H](CO)NC(=O)CNC(=O)[C@H](CC(=O)O)NC(=O)C(C)(C)NC(=O)[C@@H](N)Cc2c[nH]cn2)CCCCNC(=O)C[C@@H](C(=O)N[C@H](C(=O)N[C@@H](CC(C)C)C(=O)N[C@@H](CC(=O)O)C(=O)N[C@@H](CC(C)C)C(=O)N[C@@H](CCCCN)C(=O)N[C@@H](C)C(=O)N[C@@H](C)C(=O)N[C@@H](CCCCN)C(=O)N[C@@H](CC(=O)O)C(=O)N[C@@H](Cc2ccccc2)C(=O)N[C@H](C(=O)N[C@@H](CC(N)=O)C(=O)N[C@@H](Cc2c[nH]c3ccccc23)C(=O)N[C@@H](CC(C)C)C(=O)N[C@H](C(=O)N[C@@H](CCC(N)=O)C(=O)N[C@H](C(=O)N[C@@H](CCCCN)C(=O)N[C@H](C(=O)N[C@H](C(=O)N[C@@H](CC(=O)O)C(N)=O)[C@@H](C)O)[C@@H](C)CC)[C@@H](C)O)[C@@H](C)CC)[C@@H](C)CC)[C@@H](C)CC)NC(=O)[C@@H](Cc2ccccc2)NC1=O [Example 85] (H-H[Aib]DGSFSKE[Nle][dF]DILDLKAAKDFINWLIQTKITD-NH2; lactam 8-12; N-terminus and C-terminus assumed) | 103% | 0.0316 nM | 95.2% | 12.6 nM
5 | CCCC[C@H](NC(=O)[C@H](CCC(=O)O)NC(=O)[C@@H]1CC(=O)NCCCC[C@H](NC(=O)[C@H](CCC(=O)O)NC(=O)C(C)(C)NC(=O)[C@@H](N)Cc2c[nH]cn2)C(=O)N[C@@H](CO)C(=O)N[C@@](C)(Cc2ccccc2F)C(=O)N[C@@H](CO)C(=O)N1)C(=O)N[C@H](Cc1ccccc1)C(=O)N[C@H](C(=O)N[C@@](C)(CC(C)C)C(=O)N[C@@H](CC(C)C)C(=O)N[C@@H](CC(=O)O)C(=O)N[C@H]1CCC(=O)NCCCC[C@@H](C(=O)N[C@@H](CC(=O)O)C(=O)N[C@@H](Cc2ccccc2)C(=O)N[C@H](C(=O)N[C@H]2CCC(=O)NCCCC[C@@H](C(=O)N[C@H](C(=O)N[C@@H](CCCCN)C(N)=O)[C@@H](C)O)NC(=O)[C@H]([C@@H](C)CC)NC(=O)[C@H](CC(C)C)NC(=O)[C@H](Cc3c[nH]c4ccccc34)NC2=O)[C@@H](C)CC)NC(=O)[C@H](C)NC(=O)[C@H](C)NC(=O)[C@H](CCCCN)NC1=O)[C@@H](C)O [Example 32] (H-H[Aib]EKS[αMePhe(2-F)]SDE[Nle][dF]T[αMeL]LDEKAAKDFIEWLIKTK-NH2; lactam 4-8, 16-20, 24-28 (inferred); C-terminus assumed) | 91.3% | 0.794 nM | 97.8% | 0.0251 nM
